Among the test systems are UACC-62; EKVX; SF-268; HCT-15; NCI-H226; K562; MCF7; MOLT-4; HOP-62; SK-MEL-5; SN12C; SK-MEL-28; UO-31; MDA-N; A549; CAKI-1; RXF 393; HOP-92; MDA-MB-435.
Test in all cases: NCI tumour cell line growth inhibition, 48 h

Twelve compounds from ChEMBL document CHEMBL1201862, “PubChem BioAssay data set” (2004) can be followed below.

Molecules are shown by their SMILES.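 Where inhibition never reached the appropriate level, the endpoint shown equals the highest concentration tested. Otherwise, values were interpolated linearly from a five-concentration, 48-hour dose response in 96-well plates. GI50 is the concentration that inhibits growth by half.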 The source made the active and inactive calls. Cut-off read from the data, not from the text of the source: active = GI50 up to about 1.1 µM and inactive = higher. Where only a bound is given, the exact number is not on record here.

For the compound `C=CCOC(=O)Cn1ccc(=O)[nH]c1=O`, the GI50 was > 100 µM (inactive) in the test with UACC-62; > 100 µM (inactive) in the test with EKVX; > 100 µM (inactive) in the test with SF-268; > 100 µM in the test on HCT-15; > 100 µM (inactive) in the test with NCI-H226; > 100 µM (inactive) in the test on K562. The GI50 in the test on MCF7, in the test on MOLT-4, in the test on HOP-62, in the test with SK-MEL-5, in the test on SN12C and in the test on SK-MEL-28 was > 100 µM (inactive) throughout. Further, the GI50 in the test with UO-31, with MDA-N, in the test on A549 and with CAKI-1 was > 100 µM (inactive) throughout.
Take `O=CC(O)C(O)C(O)C(O)COC(=O)NCCCCC(=O)C(F)(F)C(F)(F)C(F)(F)C(F)(F)C(F)(F)C(F)(F)C(F)(F)F` (stereo not given): the GI50 in the test with UACC-62 is 15.9 µM (inactive); in the test with SF-268, 24.8 µM (inactive); in the test with RXF 393 it was 18.3 µM (inactive); with HOP-92, 13.2 µM (inactive); with HCT-15, 50.2 µM; with K562 it was 11.8 µM (inactive). The GI50 is 19.1 µM (inactive) with MCF7; 10.7 µM (inactive) with MOLT-4; 23.6 µM (inactive) in the test with HOP-62; 23.7 µM (inactive) in the test with SK-MEL-5; 32.4 µM (inactive) in the test on SN12C; 43.7 µM (inactive) in the test with SK-MEL-28. The GI50 in the test with UO-31 is > 100 µM (inactive); with MDA-N it was 27.8 µM (inactive); in the test on A549, 28.8 µM (inactive); in the test on MDA-MB-435, 24.2 µM (inactive); in the test with CAKI-1, 49.8 µM (inactive).
Take `CC(=O)N1c2ccccc2[C@H]2CCc3c([nH]c4ccccc34)[C@H]21`: the GI50 in the test on UACC-62 was 12.3 µM (inactive); in the test on EKVX it was 14.5 µM (inactive); with SF-268 it was 15.4 µM (inactive); with RXF 393, 13.2 µM (inactive); in the test on HOP-92, 14.4 µM (inactive); in the test with HCT-15, 11.3 µM. The GI50 was 13.9 µM (inactive) in the test with NCI-H226; 8.57 µM (inactive) in the test on K562; 11.2 µM (inactive) in the test on MOLT-4; 12.6 µM (inactive) in the test on HOP-62; 12.9 µM (inactive) with SK-MEL-5; 13.7 µM (inactive) in the test on SN12C. For the same compound, the GI50 in the test on SK-MEL-28 is 14.7 µM (inactive); in the test on UO-31, 6.31 µM (inactive); with MDA-N, 18.5 µM (inactive); with A549, 17.2 µM (inactive); in the test on MDA-MB-435, 16.7 µM (inactive); in the test with CAKI-1, 15.6 µM (inactive).
As for `C=CCCC1(CCP(=O)(c2ccccc2)c2ccccc2)OCCO1`, the GI50 is > 100 µM (inactive) in the test on UACC-62; > 100 µM (inactive) in the test with EKVX; > 100 µM (inactive) in the test on SF-268; > 100 µM (inactive) with RXF 393; > 100 µM in the test on HCT-15; > 100 µM (inactive) in the test on K562. Besides, the GI50 with MCF7, in the test on MOLT-4, with HOP-62, in the test on SK-MEL-5, in the test on SN12C and in the test on SK-MEL-28 was > 100 µM (inactive) throughout. The GI50 in the test with UO-31, in the test on MDA-N, in the test with A549 and in the test with MDA-MB-435 was > 100 µM (inactive) in each case.
For the compound `COC(=O)CCN1CCN(CCO)CC1C` (stereo not given), the GI50 is > 10 µM (inactive) with UACC-62; > 10 µM (inactive) with EKVX; > 10 µM (inactive) in the test with SF-268; > 10 µM (inactive) in the test on RXF 393; > 10 µM in the test with HCT-15; > 10 µM (inactive) in the test with NCI-H226. Moreover, the GI50 with K562, with MCF7, in the test with MOLT-4, in the test with HOP-62, with SK-MEL-5 and in the test on SN12C was > 10 µM (inactive) in each case. For the same compound, the GI50 with SK-MEL-28, with UO-31, in the test with MDA-N, with A549, in the test on MDA-MB-435 and in the test with CAKI-1 was > 10 µM (inactive) each time.
Take `COc1ccc2c(c1)-c1[nH]c3ccccc3c1CC2`: the GI50 was 15.6 µM (inactive) in the test with UACC-62; 10.1 µM (inactive) with EKVX; 14.9 µM (inactive) in the test with SF-268; 17.1 µM (inactive) with HOP-92; 14.7 µM in the test on HCT-15; 13.3 µM (inactive) with NCI-H226. The GI50 was 21.6 µM (inactive) in the test on K562; 14.9 µM (inactive) in the test on MCF7; 12.1 µM (inactive) with MOLT-4; 16.8 µM (inactive) in the test on HOP-62; 13.2 µM (inactive) in the test on SK-MEL-5; 14.4 µM (inactive) with SN12C. Moreover, the GI50 in the test with SK-MEL-28 is 16.8 µM (inactive); in the test with UO-31, 15.5 µM (inactive); in the test on MDA-N it was 16 µM (inactive); in the test on A549, 15.2 µM (inactive); in the test with MDA-MB-435, 16.6 µM (inactive); in the test with CAKI-1 it was 15.4 µM (inactive).
As for `CCOc1cc2c(cc1O)/C(=N/NS(=O)(=O)c1ccc(C)cc1)C[C@@H]1[C@@H]2CC[C@]2(C)[C@@H](O)CC[C@@H]12`, the GI50 is 13 µM (inactive) in the test on EKVX; 7.13 µM (inactive) in the test on SF-268; 4.85 µM (inactive) in the test on RXF 393; 8.65 µM (inactive) in the test with HOP-92; 4.53 µM with HCT-15; 6.01 µM (inactive) with NCI-H226. The GI50 in the test on K562 was 1.02 µM (active); with MCF7, 4.02 µM (inactive); with MOLT-4 it was 1.92 µM (inactive); in the test with SK-MEL-5, 2.47 µM (inactive); with SK-MEL-28, > 100 µM (inactive); in the test on UO-31, 4.2 µM (inactive). In addition, the GI50 was 1.2 µM (inactive) in the test on MDA-N, 6.46 µM (inactive) with A549 and 12.6 µM (inactive) in the test on CAKI-1.
For the compound `O=c1[nH]c2ccc(CC(=S)N3CCN(c4ccccc4)CC3)cc2s1`, the GI50 in the test on UACC-62 is 62.7 µM (inactive); in the test on EKVX, 26.5 µM (inactive); with SF-268, 26.1 µM (inactive); with RXF 393, 18 µM (inactive); in the test on HCT-15, 42.2 µM; in the test on NCI-H226, 14.3 µM (inactive). The GI50 with K562 was 48.2 µM (inactive); in the test on MCF7 it was 92 µM (inactive); in the test on MOLT-4 it was 16.5 µM (inactive); in the test with HOP-62, 16.6 µM (inactive); in the test on SN12C, 70.6 µM (inactive); in the test with SK-MEL-28, > 100 µM (inactive). Further, the GI50 in the test on UO-31 was 0.063 µM (active); in the test on MDA-N, > 100 µM (inactive); in the test on MDA-MB-435 it was 72.8 µM (inactive); in the test with CAKI-1, 77.1 µM (inactive).
Consider `COc1cc(/C=C2\CC/C(=C\c3cc(OC)c(O)c(OC)c3)C2=O)cc(OC)c1O`, for which the GI50 was 1.35 µM (inactive) in the test on UACC-62; 3.13 µM (inactive) with EKVX; 2.3 µM (inactive) in the test on SF-268; 1.72 µM (inactive) in the test with RXF 393; 1.4 µM with HCT-15; 3.94 µM (inactive) in the test with NCI-H226. For the same compound, the GI50 with K562 is 2.76 µM (inactive); with MCF7, 1.91 µM (inactive); with MOLT-4 it was 1.02 µM (active); in the test on HOP-62 it was 3.13 µM (inactive); with SK-MEL-5, 1.95 µM (inactive); with SN12C, 8.32 µM (inactive). Further, the GI50 in the test on SK-MEL-28 is 1.05 µM (active); in the test on UO-31, 3.43 µM (inactive); with MDA-N, 2.27 µM (inactive); in the test with A549, 3.19 µM (inactive); in the test on MDA-MB-435 it was 1.39 µM (inactive); in the test with CAKI-1 it was 2.72 µM (inactive).
In the case of `O=C(O)CCC(c1ccccc1)(c1ccccc1)c1ccccc1`, the GI50 is 27.4 µM (inactive) in the test on UACC-62; 36 µM (inactive) in the test on EKVX; 24.5 µM (inactive) with SF-268; 13.8 µM (inactive) in the test on HOP-92; 29.2 µM with HCT-15; 88.5 µM (inactive) with NCI-H226. The GI50 is 37.7 µM (inactive) in the test with K562; 17.7 µM (inactive) in the test on MCF7; 33.9 µM (inactive) with MOLT-4; 34.8 µM (inactive) in the test on HOP-62; 32 µM (inactive) with SK-MEL-5; 38.9 µM (inactive) in the test on SN12C. Also, the GI50 in the test on SK-MEL-28 is 50.5 µM (inactive); with UO-31, 38.9 µM (inactive); in the test with MDA-N, 30.3 µM (inactive); in the test with A549, 28.9 µM (inactive); with MDA-MB-435 it was 33 µM (inactive).
As to `CCCCCCCCCCCCCCCCCCOc1ccc(/C=C/C2=[N+](CCCl)CCO2)cc1`, the GI50 with UACC-62 is > 100 µM (inactive); in the test with EKVX it was > 100 µM (inactive); in the test with HOP-92 it was > 100 µM (inactive); with HCT-15, > 100 µM; with K562, > 100 µM (inactive); with MCF7, > 100 µM (inactive). Besides, the GI50 in the test on MOLT-4, in the test on HOP-62, with SK-MEL-5, with SN12C, in the test on SK-MEL-28 and with UO-31 was > 100 µM (inactive) in each case. In addition, the GI50 with MDA-N, with A549, in the test on MDA-MB-435 and with CAKI-1 was > 100 µM (inactive) in each case.
In the case of `CC12CC(c3ccccc3O1)C(C(=O)Nc1ccc(F)cc1)C(=O)N2` (stereo not given), the GI50 in the test on UACC-62 was 71.6 µM (inactive); with EKVX, 45.2 µM (inactive); with SF-268 it was > 100 µM (inactive); with HCT-15, > 100 µM; with K562, 47.9 µM (inactive); with MCF7, > 100 µM (inactive). Further, the GI50 was 21.1 µM (inactive) with MOLT-4; > 100 µM (inactive) in the test on HOP-62; 32.5 µM (inactive) with SK-MEL-5; > 100 µM (inactive) with SK-MEL-28; 65.9 µM (inactive) in the test on UO-31; > 100 µM (inactive) with MDA-N. Further, the results for the GI50 in the test on A549, in the test on MDA-MB-435 and in the test on CAKI-1 were 91 µM (inactive), > 100 µM (inactive) and > 100 µM (inactive), respectively.
